Here are results for 1 molecule from ChEMBL document CHEMBL1157898 (Bioorg Med Chem Lett, 2010).

The test system of this series is H4. The series can be described thus: Toxicity in human H4 cells at 10 uM. The class given is cell-based. The conditions noted are these: h4, 10 µM.

As to `COc1cc(OC)c(C=C2C(O)=Nc3ccccc32)c(OC)c1` [IC261], the Activity came to 40 µM.
